Assays:
THP1-NF-κB cells = assay: THP1-NF-κB cell stimulation for 24 hours, secreted luciferase luminescence; assay type: cell-based, human
Procedure: THP-1 Cell Line and Culture Conditions. The THP1-Lucia™ cell line was obtained from Invivogen (San Diego, CA). THP1-Lucia cells, which are human monocytic cells derived from the blood of a child with leukemia, contain an NF-kB-inducible Luc reporter construct. This allows NF-kB activation to be measured by quantifying the luminescence from the secreted luciferase enzyme. THP1-Lucia cells were cultured in RPMI 1640 supplemented with 10% non-heat inactivated fetal bovine serum (FBS), 10 mM HEPES, 1.0 mM sodium pyruvate, 50 ug/ml Pen-Strep, and 100 ug/mL Normocin™. Once cultured, the cells were stored in a 37° C. incubator with 5% CO2 and a humidified atmosphere. Cells were passaged every 2-3 days and not allowed to exceed a concentration of 2.0×10^6 cells/ml media.
PBMCs were isolated from blood using a Ficoll density gradient. PBMCs either used fresh or were stored at 5×10^7 cells per vial in 1 mL RPMI containing 20% autologous plasma and 10% DMSO at −80° C. until use. Stimulation plates were prepared by transferring 0.66 μl of DMSO-dissolved compounds (30 or 7.5 mM) to each well of a round bottom 96-well plate. PBMCs isolated from human adult donors or THP1-NF-κB cells were resuspended at a concentration of 10^5 cells/200 μl of RPMI supplemented with 10% of platelet-poor plasma or THP1 culture medium, respectively. 200 μl of the cell suspension were transferred to each well resulting in a final compound concentration of 100 or 25 μM. After 24 hours of incubation (37° C., 5% CO2), plates were spun down (500×g, room temperature, 5 minutes) and supernatants were harvested for further analysis.

human TLR2 = target: T1, human TLR2 (Homo sapiens, UniProt O60603); assay: HEK293 assay for human TLR2 selectivity (NF-κB/SEAP); assay type: cell-based; conditions: 18-24 hours stimulation, titratable
T1 construct: expressed in transfected cells; host or cells: HEK-Blue (human embryonic kidney) cells with an NF-kB-inducible SEAP reporter
T1 sequence (O60603 21-784): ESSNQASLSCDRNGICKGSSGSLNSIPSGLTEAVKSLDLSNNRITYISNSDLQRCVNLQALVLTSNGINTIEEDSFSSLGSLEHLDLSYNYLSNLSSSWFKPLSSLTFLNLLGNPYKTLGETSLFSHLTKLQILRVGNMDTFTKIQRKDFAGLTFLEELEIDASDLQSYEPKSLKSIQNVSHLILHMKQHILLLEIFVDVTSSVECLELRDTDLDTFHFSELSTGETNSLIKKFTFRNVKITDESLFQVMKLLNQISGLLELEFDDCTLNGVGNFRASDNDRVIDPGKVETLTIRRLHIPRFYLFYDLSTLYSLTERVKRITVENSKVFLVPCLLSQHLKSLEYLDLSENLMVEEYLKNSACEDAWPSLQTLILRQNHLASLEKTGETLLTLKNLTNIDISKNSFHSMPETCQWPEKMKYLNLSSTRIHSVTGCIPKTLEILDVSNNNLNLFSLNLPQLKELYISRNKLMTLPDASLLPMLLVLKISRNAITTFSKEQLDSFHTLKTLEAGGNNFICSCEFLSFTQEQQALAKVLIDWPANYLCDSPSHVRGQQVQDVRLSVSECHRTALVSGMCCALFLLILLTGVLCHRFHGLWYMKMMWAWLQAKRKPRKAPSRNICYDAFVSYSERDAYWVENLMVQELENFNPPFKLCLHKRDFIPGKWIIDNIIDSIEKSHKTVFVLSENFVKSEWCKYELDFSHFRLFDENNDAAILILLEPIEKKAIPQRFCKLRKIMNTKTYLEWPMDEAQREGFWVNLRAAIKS
Procedure: (§1) HEK293 assay for human TLR2 and TLR8 selectivity: Human embryonic kidney (HEK) 293 cells expressing human TLR2 or TLR8 with an NF-κB-responsive secreted embryonic alkaline phosphatase (SEAP) reporter gene were obtained from Invivogen (San Diego, CA). Cells were maintained in RPMI or DMEM with 10% heat inactivated-FBS and selection antibiotics per the manufacturer's instructions. Cells were plated at 5×10^5 cells/96-well and stimulated with indicated agonist(s) for 24 hours. Supernatants were harvested and analyzed for NF-κB/SEAP activation using the QuantiBlue kit (Invivogen). Values are expressed as fold change in OD650 over vehicle-only treated samples.

human TLR8 = target: T2, human TLR8 (Homo sapiens, UniProt Q9NR97); assay: HEK293 assay for human TLR8 selectivity (NF-κB/SEAP); assay type: cell-based; conditions: selectivity counter-assay
T2 construct: host or cells: HEK293 cells with an NF-kB-responsive SEAP reporter gene
T2 sequence (Q9NR97 27-1041): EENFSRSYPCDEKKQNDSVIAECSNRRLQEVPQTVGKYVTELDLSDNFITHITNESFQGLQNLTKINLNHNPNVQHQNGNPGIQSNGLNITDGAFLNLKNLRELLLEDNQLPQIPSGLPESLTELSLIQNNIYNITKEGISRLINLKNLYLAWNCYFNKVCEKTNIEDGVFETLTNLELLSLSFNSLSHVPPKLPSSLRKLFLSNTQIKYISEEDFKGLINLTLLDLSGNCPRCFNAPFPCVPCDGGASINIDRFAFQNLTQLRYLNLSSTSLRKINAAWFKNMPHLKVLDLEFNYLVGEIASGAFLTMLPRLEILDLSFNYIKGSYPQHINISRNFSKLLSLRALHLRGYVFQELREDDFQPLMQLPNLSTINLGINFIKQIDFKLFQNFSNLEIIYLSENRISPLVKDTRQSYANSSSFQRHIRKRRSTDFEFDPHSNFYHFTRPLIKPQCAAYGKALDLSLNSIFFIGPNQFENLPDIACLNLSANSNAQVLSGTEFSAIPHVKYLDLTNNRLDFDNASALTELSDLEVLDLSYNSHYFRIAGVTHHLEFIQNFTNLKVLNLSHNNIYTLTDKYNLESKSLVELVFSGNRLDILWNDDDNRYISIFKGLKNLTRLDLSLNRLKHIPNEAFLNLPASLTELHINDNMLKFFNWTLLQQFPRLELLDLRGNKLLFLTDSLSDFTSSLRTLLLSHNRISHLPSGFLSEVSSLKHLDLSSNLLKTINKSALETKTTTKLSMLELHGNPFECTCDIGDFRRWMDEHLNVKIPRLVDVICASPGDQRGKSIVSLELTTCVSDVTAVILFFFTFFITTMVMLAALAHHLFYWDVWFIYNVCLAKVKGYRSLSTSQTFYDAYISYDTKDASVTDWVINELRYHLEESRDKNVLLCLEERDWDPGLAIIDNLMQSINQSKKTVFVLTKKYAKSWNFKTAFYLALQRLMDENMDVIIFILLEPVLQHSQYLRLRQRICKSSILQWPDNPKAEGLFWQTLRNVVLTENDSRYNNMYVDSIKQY
Procedure: as §1

Compound: CNC(=O)c1c(NC(=O)c2ccc(S(=O)(=O)N(C)C)cc2)sc2c1CCC2 [Compound 80]
- Activation of THP1 cells (THP1-NF-κB cells; 384 and 96 well assay): induced activation of THP1 cells
- THP1 cells (relative luminescence units, N = 4) Comp at 25 uM (THP1-NF-κB cells; NF-κB-dependent luminescence, compound at 25 uM, 24 hours): 8280 relative luminescence units
- THP1 cells (relative luminescence units, N = 4) Comp at 100 uM (THP1-NF-κB cells; NF-κB-dependent luminescence, compound at 100 uM, 24 hours): 12174 relative luminescence units
- TLR2 activation in HEK TLR2 cells (SEAP) (human TLR2): induced TLR2 specific activation
- TLR8 induction in HEK TLR8 cells (SEAP) (human TLR8): without induction of TLR8

Reference: patent US12268739B2, “Use of toll-like receptor 2 (TLR-2) agonist for modulating human immune response” (Children's Medical Center Corporation, priority 2018, dated 2025)
